Data taken from patent US20240124503A1, “HETEROAROMATIC PHOSPHONIUM SALTS AND THEIR USE TREATING CANCER” (FLORATEK PHARMA S.A., priority 2021, published 2024).

Columns and labels:
MDA-MB-231 = assay: Cell viability assay, MDA-MB-231; assay type: cell-based; conditions: Homo sapiens; breast carcinoma cell line MDA-MB-231
Experimental: (§1) Antitumor activity of the compounds and doxorubicin as a positive control was assessed by using the CellTiter-Blue Cell Viability Assay (Promega, #G8082) or CellTiter-Glow® Luminescent Cell Viability assay (Promega #G7572) according to the manufacturer's instructions. The compounds were tested at 5 or 6 concentrations in half-log increments (highest concentration 30 μM or 100 μM) in duplicate or triplicate well conditions.
(§2) Tumor cells were grown at 37° C. in a humidified atmosphere with 5% CO2 in RPMI 1640 or DMEM medium, supplemented with 10% (v/v) fetal calf serum and 50 μg/ml gentamicin for up to 20 passages, and were passaged once or twice weekly. Cells were harvested using TrypLE or PBS buffer containing 1 mM EDTA, and the percentage of viable cells was determined using a CASY Model TI cell counter (OMNI Life Science). Cells were harvested from exponential phase cultures, counted and plated in 96 well flat-bottom microtiter plates at a cell density depending on the cell line's growth rate (4,000-20,000 cells/well depending on the cell line's growth rate, up to 60,000 for hematological cancer cell lines) in RPMI 1640 or DMEM medium supplemented with 10% (v/v) fetal calf serum and 50 μg/ml gentamicin (140 μl/well). […] Viability of cells was quantified by the CellTiter-Blue® cell viability assay (Promega G8081) or CellTiter-Glow® Luminescent Cell Viability assay (Promega #G7572). […]

NCI-H460 = assay: Cell viability assay, NCI-H460; assay type: cell-based; conditions: Homo sapiens; lung carcinoma cell line NCI-H460
Experimental: as §1, §2

A549 = assay: Cell viability assay, A549; assay type: cell-based; conditions: Homo sapiens; lung carcinoma cell line A549
Experimental: as §1, §2

Mia-Pa-Ca-2 = assay: Cell viability assay, Mia-Pa-Ca-2; assay type: cell-based; conditions: Homo sapiens, MIA PaCa-2; pancreatic carcinoma cell line Mia-Pa-Ca-2
Experimental: as §1, §2

ADCK3 = biological target: T1, ADCK3 (Homo sapiens, UniProt Q8NI60); assay: KINOMEscan competition binding, ADCK3
T1 construct: purchased Eurofins (KINOMEscan); host or cells: E. coli BL21-derived host (T7 phage) or HEK-293
Experimental: (§3) Selected compounds were screened for kinase inhibition using the KINOMEscan™ assay (Eurofins) which is based on a competition binding assay that quantitatively measures the ability of a compound to compete with an immobilized, active-site directed ligand. The assay was performed by combining three components: DNA-tagged kinase; immobilized ligand; and the test compound. The ability of the test compound to compete with the immobilized ligand was measured via quantitative PCR of the DNA tag.
(§4) Kinase-tagged T7 phage strains were prepared in an E. coli host derived from the BL21 strain. E. coli were grown to log-phase and infected with T7 phage and incubated with shaking at 32° C. until lysis. The lysates were centrifuged and filtered to remove cell debris. The remaining kinases were produced in HEK-293 cells and subsequently tagged with DNA for qPCR detection. Streptavidin-coated magnetic beads were treated with biotinylated small molecule ligands for 30 minutes at room temperature to generate affinity resins for kinase assays. […] Kds were determined using an 11-point 3-fold compound dilution series with three DMSO control points. […] The kinase concentration in the eluates was measured by qPCR. […]
(§5) Binding constants (Kds) were calculated with a standard dose-response curve using the Hill equation: Response=Background+[Signal−Background/1+(Kd^Hill Slope/Dose^Hill Slope)] […]

CDK11 = biological target: T2, CDK11 (Homo sapiens, UniProt Q9BWU1); assay: KINOMEscan competition binding, CDK11
T2 construct: purchased Eurofins (KINOMEscan); host or cells: E. coli BL21-derived host (T7 phage) or HEK-293
Experimental: as §3, §4, §5

[1] = biological target: T3, RSK2(Kin.Dom.1-N-terminal) (Homo sapiens, UniProt P51812); assay: KINOMEscan competition binding, RSK2(Kin.Dom.1-N-terminal)
T3 construct: Kin.Dom.1; purchased Eurofins (KINOMEscan); host or cells: E. coli BL21-derived host (T7 phage) or HEK-293
Experimental: as §3, §4, §5

colon cancer cell = assay: Cell viability, colon cancer cells (panel statement); assay type: cell-based; conditions: summary of Table 6; read-out: IC50, colon cancer cell growth
Experimental: as §1, §2

T1 sequence (Q8NI60 163-647): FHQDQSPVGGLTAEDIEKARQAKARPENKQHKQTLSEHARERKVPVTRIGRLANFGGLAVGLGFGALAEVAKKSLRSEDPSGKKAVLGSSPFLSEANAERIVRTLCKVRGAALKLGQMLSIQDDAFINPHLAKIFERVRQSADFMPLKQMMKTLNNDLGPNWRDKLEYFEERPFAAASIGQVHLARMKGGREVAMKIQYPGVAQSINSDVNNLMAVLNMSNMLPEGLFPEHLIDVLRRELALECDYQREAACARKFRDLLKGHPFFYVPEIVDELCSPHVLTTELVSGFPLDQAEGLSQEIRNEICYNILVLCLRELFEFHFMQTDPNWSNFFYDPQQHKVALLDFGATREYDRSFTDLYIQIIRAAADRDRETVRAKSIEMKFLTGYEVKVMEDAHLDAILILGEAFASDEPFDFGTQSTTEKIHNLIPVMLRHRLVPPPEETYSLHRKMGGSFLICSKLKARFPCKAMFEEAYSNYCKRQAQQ
T3 sequence (P51812 68-327 limits assumed): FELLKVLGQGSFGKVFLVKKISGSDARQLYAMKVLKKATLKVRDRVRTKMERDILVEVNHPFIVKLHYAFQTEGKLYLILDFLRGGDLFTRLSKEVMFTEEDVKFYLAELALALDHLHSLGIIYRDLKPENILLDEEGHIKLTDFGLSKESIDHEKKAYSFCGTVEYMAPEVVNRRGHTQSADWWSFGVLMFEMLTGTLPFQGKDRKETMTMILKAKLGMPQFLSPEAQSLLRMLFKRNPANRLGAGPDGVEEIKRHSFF
T2 sequence (Q9BWU1 whole entry): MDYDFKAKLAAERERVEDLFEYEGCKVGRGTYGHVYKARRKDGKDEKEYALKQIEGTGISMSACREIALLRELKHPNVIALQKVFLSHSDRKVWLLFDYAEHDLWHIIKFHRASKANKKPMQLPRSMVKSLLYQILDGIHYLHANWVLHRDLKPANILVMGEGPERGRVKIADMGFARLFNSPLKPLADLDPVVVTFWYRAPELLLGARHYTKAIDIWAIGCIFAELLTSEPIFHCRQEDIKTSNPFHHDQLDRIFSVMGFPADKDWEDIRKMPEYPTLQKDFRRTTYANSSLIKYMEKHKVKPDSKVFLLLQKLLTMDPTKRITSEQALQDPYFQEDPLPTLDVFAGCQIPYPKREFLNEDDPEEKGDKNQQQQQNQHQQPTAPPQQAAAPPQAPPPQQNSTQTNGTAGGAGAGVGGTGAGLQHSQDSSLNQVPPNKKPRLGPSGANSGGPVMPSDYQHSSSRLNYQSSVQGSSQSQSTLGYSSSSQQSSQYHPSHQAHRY

In the case of COc1c(O)ccc2c(=O)c(O)c(-c3ccc(CCCC[P+](c4ccccc4)(c4ccccc4)c4ccccc4)cc3)oc12 [SND190, (4-(4-(3,7-Dihydroxy-8-methoxy-4-oxo-4H1-chromen-2-yl)phenyl)butyl)triphenylphosphonium bromide], the IC50 (MDA-MB-231) is reported as 3.5 µM, the IC50 (NCI-H460) is reported as 8.63 µM and the IC50 (A549) is reported as 13.8 µM. The IC50 (Mia-Pa-Ca-2) was 0.33 µM, the Kd (ADCK3) was 0.1 µM and the Kd (CDK11) was 3.6 µM. For the same compound, the Kd [1] was 1.7 µM and the IC50 (colon cancer cell) was less than 20 µM.
